Laboratory results reported in US7960584B2, “Compounds, isomer thereof, or pharmaceutically acceptable salts thereof as vanilloid receptor antagonist; and pharmaceutical compositions containing the same” (Amorepacific Corporation, priority 2005, dated 2011).

Columns and labels:
vanilloid receptor = biological target: T1, vanilloid receptor (Rattus norvegicus, UniProt O35433); assay: 45Ca influx test in primary cultured DRG neurons (capsaicin-induced calcium uptake); format: cell-based; details: neonatal SD rat DRG neurons; capsaicin 0.5 μM; 45Ca 10 μCi/ml; 10 min at room temperature
T1 construct: DRG nerve cells from the primary culture of 2 days were equilibrated; endogenous in cells; host or cells: primary culture of dorsal root ganglion neurons from neonatal SD rats
Method: 1) Separation of Spinal Dorsal Root Ganglia (DRG) in Newborn Rats and Primary Culture Thereof
Neonatal (2-3 day old or younger than 2-3 day old) SD rats were put in ice for 5 minutes to anesthetize and disinfected with 70% ethanol. DRG of all part of spinal cord were dissected (Wood et al., 1988, J. Neurosci. 8, pp 3208-3220) and collected in DME/F12 medium to which 1.2 g/l sodium bicarbonate, 50 mg/l gentamycin were added. The DRG were incubated sequentially at 37° C. for 30 min in 200 U/ml collagenase and 2.5 mg/ml trypsin, separately. The ganglia were washed twice with DME/F12 medium supplemented with 10% horse serum, triturated through a fire-polished Pasteur pipette, filtered through Nitex 80 membrane to obtain single cell suspension and the suspension was washed once more. This was subjected to centrifugation, then resuspended in cell culture medium at certain level of cell density. As the cell culture medium, DME/F12 medium supplemented with 10% horse serum was diluted with identical medium conditioned by C6 glioma cells 2 days on a confluent monolayer (1:1), and NGF (Nerve Growth Factor) was added to adjust 200 ng/ml as final concentration. After the cells were grown 2 days in medium where cytosine arabinoside (Ara-C, 100 μM) was added to kill dividing nonneuronal cells, medium was changed to one without Ara-C. The resuspended cells were plated at a density of 1500-2000 neurons/well onto Terasaki plates previously coated with 10 μg/ml poly-D-ornithine.
2) ^45Ca Influx Experiments
DRG nerve cells from the primary culture of 2 days were equilibrated by washing 4 times with HEPES (10 mM, pH 7.4)-buffered Ca^2+, Mg^2+-free HBSS (H-HBSS). The solution in each well was removed from the individual well. Medium containing the test compound plus capsaicin (final concentration 0.5 μM) and ^45Ca (final concentration 10 μCi/ml) in H-HBSS was added to each well and incubated at room temperature for 10 mins. Terasaki plates were washed five times with H-HBSS and dried at room temperature. To each well, 0.3% SDS (10 μl) was added to elute ^45Ca. After the addition of scintillation cocktail of into each well, the amount of ^45Ca influx into neuron was measured by counting radioactivity.

Male ICR mice = assay: Analgesic activity test: mouse writhing test induced with phenyl-p-quinone; format: in vivo; details: dose 1 mg/kg intraperitoneally 30 min before phenyl-p-quinone 4.5 mg/kg i.p.; writhes counted 6-12 min after
Method: 2. Analgesic Activity Test: Mouse Writhing Test by Inducing with Phenyl-p-quinone
Male ICR mice (mean body weight 25 g) were maintained in a controlled lighting environment (12 h on/12 h off) for experiment. Animals received an intraperitoneal injection of 0.3 ml of the chemical irritant phenyl-p-quinone (dissolved in saline containing 5% ethanol to be a dose of 4.5 mg/kg) and 6 mins later, the number of abdominal constrictions was counted in the subsequent 6 mins period. Animals (10 animals/group) received 0.2 ml of test compounds solution in vehicle of ethanol/Tween 80/saline (10/10/80) intraperitoneally 30 min before the injection of phenyl-p-quinone. A reduction in the number of writhes responding to the test drug compound relative to the number responding in saline control group was considered to be indicative of an analgesic effect. Analgesic effect was calculated by % inhibition equation (% inhibition=(C−T)/C×100), wherein C and T represent the number of writhes in control and compound-treated group, respectively (Table 2).

T1 sequence (O35433 whole entry): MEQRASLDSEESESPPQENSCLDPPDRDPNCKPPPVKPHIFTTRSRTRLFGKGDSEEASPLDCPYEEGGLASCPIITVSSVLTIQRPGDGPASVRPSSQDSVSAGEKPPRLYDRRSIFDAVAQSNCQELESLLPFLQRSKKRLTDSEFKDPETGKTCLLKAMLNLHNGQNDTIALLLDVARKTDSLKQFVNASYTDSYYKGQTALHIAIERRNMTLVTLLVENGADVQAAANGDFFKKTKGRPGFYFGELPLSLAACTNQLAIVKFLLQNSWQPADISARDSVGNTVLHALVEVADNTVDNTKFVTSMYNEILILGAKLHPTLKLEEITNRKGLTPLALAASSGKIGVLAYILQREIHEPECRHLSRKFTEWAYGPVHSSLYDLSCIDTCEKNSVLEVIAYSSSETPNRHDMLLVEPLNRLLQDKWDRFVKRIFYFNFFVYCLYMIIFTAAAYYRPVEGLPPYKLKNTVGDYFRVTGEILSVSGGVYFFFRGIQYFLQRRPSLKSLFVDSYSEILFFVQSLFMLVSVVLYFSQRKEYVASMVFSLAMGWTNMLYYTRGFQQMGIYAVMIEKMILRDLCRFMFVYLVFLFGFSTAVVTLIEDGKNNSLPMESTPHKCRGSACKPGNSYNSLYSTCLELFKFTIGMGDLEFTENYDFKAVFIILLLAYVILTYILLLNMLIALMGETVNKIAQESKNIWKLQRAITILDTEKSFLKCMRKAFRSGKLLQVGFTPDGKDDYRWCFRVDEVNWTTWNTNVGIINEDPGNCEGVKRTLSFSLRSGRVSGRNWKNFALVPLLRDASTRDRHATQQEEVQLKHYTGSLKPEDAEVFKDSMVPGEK

SMILES | IC50 (vanilloid receptor) [nM] | melting point [°C] | Analgesic effect (% Inhibition) (Male ICR mice)
CC(C)(C)c1ccc(/C=C/C(=O)NCc2cc(F)c(NS(C)(=O)=O)cc2F)cc1 [Example 5, 3-(4-t-Butyl-phenyl)-N-(2,5-difluoro-4-methanesulfonylamino-benzyl)-acrylamide] | 210 |  | 
CC(C)(C)c1ccc(/C=C/C(=O)NCc2cc(Cl)c(NS(C)(=O)=O)c(I)c2)cc1 [Example 6, 3-(4-t-Butylphenyl)-N-(3-chloro-5-iodo-4-methanesulfonylamino-benzyl)acrylamide] | 350 |  | 
Cc1cc(CNC(=O)/C=C/c2ccc(C(C)(C)C)cc2)cc(Cl)c1NS(C)(=O)=O [Example 7, 3-(4-t-Butyl-phenyl)-N-(3-chloro-4-methanesulfonylamino-5-methylbenzyl)acrylamide] | 360 |  | 
CC(C)(C)c1ccc(/C=C/C(=O)NCc2cc(F)c(NS(C)(=O)=O)c(I)c2)cc1 [Example 8, 3-(4-t-butylphenyl)-N-(3-fluoro-5-iodo-4-methanesulfonylaminobenzyl)acrylamide] | 180 |  | 
Cc1cc(CNC(=O)/C=C/c2ccc(C(C)(C)C)cc2)cc(F)c1NS(C)(=O)=O [Example 9, 3-(4-t-Butyl-phenyl)-N-(3-fluoro-4-methanesulfonylamino-5-methyl-benzyl)-acrylamide] | 360 |  | 
C/C(=C\c1ccc(C(C)(C)C)cc1)C(=O)NCc1ccc(NS(C)(=O)=O)cc1 [Example 10, 3-(4-t-butylphenyl)-N-(4-methanesulfonylaminobenzyl)-2-methyl-acrylamide] | 440 |  | 
C/C(=C\c1ccc(C(C)(C)C)cc1)C(=O)NCc1ccc(NS(C)(=O)=O)c(F)c1 [Example 12, 3-(4-t-Butylphenyl)-N-(3-fluoro-4-methanesulfonylaminobenzyl)-2-methylacrylamide] | 120 |  | 
CC(C)(C)c1ccc(C#CC(=O)NCc2ccc(NS(C)(=O)=O)cc2)cc1 [Example 15, 3-(4-t-butylphenyl)-N-[4-(methanesulfonylamino)benzyl]propiolicamide] | 590 |  | 
CC(C)(C)c1ccc(CNC(=O)NCc2cc(F)c(NS(C)(=O)=O)c(I)c2)cc1 [Example 17, N-{4-[3-(4-t-butylbenzyl)ureidomethyl]-2-fluoro-6-iodophenyl}methanesulfonamide] | 290 |  | 
CCc1cc(CNC(=O)NCc2ccc(C(C)(C)C)cc2)cc(F)c1NS(C)(=O)=O [Example 19, N-{4-[3-(4-t-butylbenzyl)ureidomethyl]-2-ethyl-6-fluorophenyl}methanesulfonamide] | 150 |  | 
CC(C)(C)c1ccc(CNC(=O)NCc2ccc(NS(C)(=O)=O)c(F)c2)cc1 [Example 20, N-{4-[3-(4-t-butylbenzyl)ureidomethyl]-2-fluorophenyl}methanesulfonamide] |  |  | 82
Cc1cc(CNC(=O)NCc2ccc(C(C)(C)C)cc2)ccc1NS(C)(=O)=O [Example 21, N-{4-[3-(4-t-butylbenzyl)ureidomethyl]-2-methylphenyl}methane sulfonamide] | 83 |  | 58
CC(C)(C)c1ccc(CNC(=O)NCc2ccc(NS(C)(=O)=O)c([N+](=O)[O-])c2)cc1 [Example 23, N-{4-[3-(4-t-butylbenzyl)ureidomethyl]-2-nitrophenyl}methane sulfonamide] | 240 |  | 
CC(C)(C)c1ccc(CNC(=O)NCc2ccc(NS(C)(=O)=O)c(I)c2)cc1 [Example 24, N-{4-[3-(4-t-Butyl-benzyl)-ureidomethyl]-2-iodo-phenyl}-methanesulfonamide] | 390 |  | 
CC(C)(C)c1ccc(CNC(=O)NCc2cc(F)c(NS(C)(=O)=O)c(F)c2)cc1 [Example 25, N-{4-[3-(4-t-Butyl-benzyl)-ureidomethyl]-2,6-difluoro-phenyl}-methanesulfonamide] | 470 |  | 
Cc1cc(CNC(=O)NCc2ccc(C(C)(C)C)cc2)cc(Cl)c1NS(C)(=O)=O [Example 27, N-{4-[3-(4-t-Butylbenzyl)ureidomethyl]-2-chloro-6-methylphenyl}methanesulfonamide] | 190 |  | 
CCc1cc(CNC(=O)NCc2ccc(C(C)(C)C)cc2)c(Cl)cc1NS(C)(=O)=O [Example 28, N-{4-[3-(4-t-Butylbenzyl)-ureidomethyl]-5-chloro-2-ethylphenyl}methanesulfonamide] | 290 |  | 
Cc1cc(CNC(=O)NCc2ccc(C(C)(C)C)cc2)cc(F)c1NS(C)(=O)=O [Example 29, N-{4-[3-(4-t-Butyl-benzyl)-ureidomethyl]-2-fluoro-6-methyl-phenyl}-methanesulfonamide] | 73 |  | 54

Continued by falling IC50 (vanilloid receptor), values first:

IC50 (vanilloid receptor) [nM] | melting point [°C] | SMILES | Analgesic effect (% Inhibition) (Male ICR mice)
560 |  | CC(C)(C)c1ccc(CNC(=O)NCc2cc(F)c(NS(C)(=O)=O)cc2F)cc1 [Example 26, N-{4-[3-(4-t-Butyl-benzyl)-ureidomethyl]-2,5-difluoro-phenyl}-methanesulfonamide] | 
530 |  | CC(C)(C)c1ccc(CNC(=O)NCc2cc(I)c(NS(C)(=O)=O)cc2Cl)cc1 [Example 18, N-{4-[3-(4-t-butylbenzyl)ureidomethyl]-5-chloro-2-Iodophenyl}methanesulfonamide] | 
310 |  | CC(C)(C)c1ccc(/C=C/C(=O)NCc2cc(F)c(NS(C)(=O)=O)c(F)c2)cc1 [Example 4, 3-(4-t-Butyl-phenyl)-N-(3,5-difluoro-4-methanesulfonylamino-benzyl)-acrylamide] | 
290 |  | Cc1cc(CNC(=O)/C=C/c2ccc(C(C)(C)C)cc2)ccc1NS(C)(=O)=O [Example 3, 3-(4-t-Butyl-phenyl)-N-(3-methyl-4-methanesulfonylamino-benzyl)-acrylamide] | 
260 |  | CC(C)(C)c1ccc(/C=C/C(=O)NCc2ccc(NS(C)(=O)=O)c(Cl)c2)cc1 [Example 2, 3-(4-t-Butyl-phenyl)-N-(3-chloro-4-methanesulfonylamino-benzyl)-acrylamide] | 
240 | 60 to 61 | CC(C)(C)c1ccc(CNC(=O)NCc2ccc(NS(C)(=O)=O)c(Cl)c2)cc1 [Example 22, N-{4-[3-(4-t-butylbenzyl)ureidomethyl]-2-chlorophenyl}methane sulfonamide] | 
150 |  | C/C(=C\C(=O)NCc1ccc(NS(C)(=O)=O)c(F)c1)c1ccc(C(C)(C)C)cc1 [Example 13, 3-(4-t-Butyl-phenyl)-but-2-enoic acid 3-fluoro-4-methanesulfonylamino-benzylamide] | 
100 |  | C[C@@H](NC(=O)C#Cc1ccc(C(C)(C)C)cc1)c1ccc(NS(C)(=O)=O)cc1 [Example 16, 3-(4-t-butylphenyl)-N-[1-(R)-(4-methanesulfonylaminophenyl)ethyl]propiolicamide] | 
46 |  | C/C(=C\c1ccc(C(C)(C)C)cc1)C(=O)N[C@H](C)c1ccc(NS(C)(=O)=O)cc1 [Example 11, 3-(4-t-Butylphenyl)-N-[1-(R)-(4-methanesulfonylaminophenyl)ethyl]-2-methylacrylamide] | 56
41 |  | C/C(=C\c1ccc(C(C)(C)C)cc1)C(=O)N[C@H](C)c1ccc(NS(C)(=O)=O)c(F)c1 [Example 14, 3-(4-t-Butyl-phenyl)-N-[1-(3-fluoro-4-methanesulfonylaminophenyl)ethyl]-2-methylacrylamide] | 42
